Measured values as given in US20240246942A1, “KINASE INHIBITORS FOR THE TREATMENT OF NEURODEGENERATIVE DISEASES” (priority 2020, published 2024).

Key:
Assay in all cases: biochemical
[1] = molecular target: T1, panel of 374 wild-type kinases (Homo sapiens, UniProt P25098); conditions: read-out: % Enzyme Activity (relative to DMSO controls), GRK2
T1 construct: purchased Reaction Biology Corporation
T1 sequence (P25098 1-689): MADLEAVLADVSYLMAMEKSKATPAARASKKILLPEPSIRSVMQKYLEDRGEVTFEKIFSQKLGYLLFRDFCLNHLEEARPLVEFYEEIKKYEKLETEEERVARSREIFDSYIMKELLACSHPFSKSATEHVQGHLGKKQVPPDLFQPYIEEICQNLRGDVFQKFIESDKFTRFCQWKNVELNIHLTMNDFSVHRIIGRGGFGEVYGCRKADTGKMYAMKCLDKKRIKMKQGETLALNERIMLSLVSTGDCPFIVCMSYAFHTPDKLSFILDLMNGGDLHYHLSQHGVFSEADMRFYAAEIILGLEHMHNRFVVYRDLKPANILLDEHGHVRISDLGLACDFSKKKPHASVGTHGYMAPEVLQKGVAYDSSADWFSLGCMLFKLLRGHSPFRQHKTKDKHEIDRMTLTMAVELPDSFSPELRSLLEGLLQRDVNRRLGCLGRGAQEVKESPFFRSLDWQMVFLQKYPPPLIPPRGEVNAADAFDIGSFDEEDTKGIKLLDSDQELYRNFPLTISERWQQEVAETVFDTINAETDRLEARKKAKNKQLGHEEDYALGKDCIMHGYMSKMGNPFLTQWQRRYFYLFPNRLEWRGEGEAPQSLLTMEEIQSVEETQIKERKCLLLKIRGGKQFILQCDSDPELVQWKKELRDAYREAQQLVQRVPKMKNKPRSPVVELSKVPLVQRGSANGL

[2] = molecular target: T2, panel of 374 wild-type kinases (Homo sapiens, UniProt Q05513); conditions: read-out: % Enzyme Activity (relative to DMSO controls), kinase PKCzeta
T2 construct: purchased Reaction Biology Corporation
T2 sequence (Q05513 1-592): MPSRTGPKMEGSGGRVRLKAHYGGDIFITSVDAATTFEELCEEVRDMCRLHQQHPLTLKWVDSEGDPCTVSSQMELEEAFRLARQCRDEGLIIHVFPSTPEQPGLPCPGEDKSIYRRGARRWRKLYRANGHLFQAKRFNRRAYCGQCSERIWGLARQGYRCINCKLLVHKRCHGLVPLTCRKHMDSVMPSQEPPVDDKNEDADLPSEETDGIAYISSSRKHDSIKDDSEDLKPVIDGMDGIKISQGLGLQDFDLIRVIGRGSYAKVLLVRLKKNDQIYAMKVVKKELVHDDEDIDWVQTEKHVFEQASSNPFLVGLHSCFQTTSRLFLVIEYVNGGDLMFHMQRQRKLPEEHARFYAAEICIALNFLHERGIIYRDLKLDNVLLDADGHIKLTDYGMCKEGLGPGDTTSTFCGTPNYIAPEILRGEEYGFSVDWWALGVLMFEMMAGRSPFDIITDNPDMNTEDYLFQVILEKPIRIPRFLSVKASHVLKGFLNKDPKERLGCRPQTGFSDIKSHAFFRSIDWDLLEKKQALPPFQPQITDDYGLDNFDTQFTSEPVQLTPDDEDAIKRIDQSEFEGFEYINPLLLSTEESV

[3] = molecular target: T3, panel of 374 wild-type kinases (Homo sapiens, UniProt P49840); conditions: read-out: % Enzyme Activity (relative to DMSO controls), GSK3a
T3 construct: purchased Reaction Biology Corporation
T3 sequence (P49840 whole entry): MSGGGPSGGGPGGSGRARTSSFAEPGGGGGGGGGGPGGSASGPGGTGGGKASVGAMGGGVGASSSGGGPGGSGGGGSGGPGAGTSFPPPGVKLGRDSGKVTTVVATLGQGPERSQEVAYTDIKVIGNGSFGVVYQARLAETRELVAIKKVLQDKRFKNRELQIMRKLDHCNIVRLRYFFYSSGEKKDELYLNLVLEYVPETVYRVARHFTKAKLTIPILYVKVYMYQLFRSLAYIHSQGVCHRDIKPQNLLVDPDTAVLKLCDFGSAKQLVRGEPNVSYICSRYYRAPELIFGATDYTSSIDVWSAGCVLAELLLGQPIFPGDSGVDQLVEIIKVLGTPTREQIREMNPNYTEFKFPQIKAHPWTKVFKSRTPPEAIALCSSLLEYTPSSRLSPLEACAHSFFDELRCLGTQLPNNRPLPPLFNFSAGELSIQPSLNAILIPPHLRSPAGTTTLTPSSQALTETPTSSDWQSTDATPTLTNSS

[4] = molecular target: T4, panel of 374 wild-type kinases (Homo sapiens, UniProt P54756); conditions: read-out: % Enzyme Activity (relative to DMSO controls), EPHA5
T4 construct: purchased Reaction Biology Corporation
T4 sequence (P54756 25-1037): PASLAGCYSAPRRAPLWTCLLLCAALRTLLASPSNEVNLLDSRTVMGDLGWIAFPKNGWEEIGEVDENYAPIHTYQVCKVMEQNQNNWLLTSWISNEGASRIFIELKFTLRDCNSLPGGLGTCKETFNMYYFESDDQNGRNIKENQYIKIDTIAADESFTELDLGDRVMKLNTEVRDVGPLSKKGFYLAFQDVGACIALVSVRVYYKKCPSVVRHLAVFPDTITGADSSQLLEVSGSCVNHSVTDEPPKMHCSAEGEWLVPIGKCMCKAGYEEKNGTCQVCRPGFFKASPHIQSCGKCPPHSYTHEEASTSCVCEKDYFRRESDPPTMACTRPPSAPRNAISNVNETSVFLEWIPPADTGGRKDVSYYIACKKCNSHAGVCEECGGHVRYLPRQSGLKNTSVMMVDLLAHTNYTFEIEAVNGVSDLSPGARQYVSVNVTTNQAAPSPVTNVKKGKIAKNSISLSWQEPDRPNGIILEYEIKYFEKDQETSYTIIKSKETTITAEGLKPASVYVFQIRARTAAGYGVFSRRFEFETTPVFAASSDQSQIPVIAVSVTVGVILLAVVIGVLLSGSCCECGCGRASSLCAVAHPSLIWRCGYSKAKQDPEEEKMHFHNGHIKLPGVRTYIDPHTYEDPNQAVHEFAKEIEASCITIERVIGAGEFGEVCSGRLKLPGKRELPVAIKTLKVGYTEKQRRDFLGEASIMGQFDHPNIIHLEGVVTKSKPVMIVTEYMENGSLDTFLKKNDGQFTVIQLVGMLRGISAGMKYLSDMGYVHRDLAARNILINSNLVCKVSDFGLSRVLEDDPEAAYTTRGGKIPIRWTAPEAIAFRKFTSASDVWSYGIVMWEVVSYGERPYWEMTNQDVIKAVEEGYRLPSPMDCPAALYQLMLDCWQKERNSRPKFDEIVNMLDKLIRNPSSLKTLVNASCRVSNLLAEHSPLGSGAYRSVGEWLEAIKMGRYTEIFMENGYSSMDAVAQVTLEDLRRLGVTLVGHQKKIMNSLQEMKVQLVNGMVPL

[5] = molecular target: T5, panel of 374 wild-type kinases (Homo sapiens, UniProt P04626); conditions: read-out: % Enzyme Activity (relative to DMSO controls), ERBB2/HER2
T5 construct: purchased Reaction Biology Corporation
T5 sequence (P04626 23-1255): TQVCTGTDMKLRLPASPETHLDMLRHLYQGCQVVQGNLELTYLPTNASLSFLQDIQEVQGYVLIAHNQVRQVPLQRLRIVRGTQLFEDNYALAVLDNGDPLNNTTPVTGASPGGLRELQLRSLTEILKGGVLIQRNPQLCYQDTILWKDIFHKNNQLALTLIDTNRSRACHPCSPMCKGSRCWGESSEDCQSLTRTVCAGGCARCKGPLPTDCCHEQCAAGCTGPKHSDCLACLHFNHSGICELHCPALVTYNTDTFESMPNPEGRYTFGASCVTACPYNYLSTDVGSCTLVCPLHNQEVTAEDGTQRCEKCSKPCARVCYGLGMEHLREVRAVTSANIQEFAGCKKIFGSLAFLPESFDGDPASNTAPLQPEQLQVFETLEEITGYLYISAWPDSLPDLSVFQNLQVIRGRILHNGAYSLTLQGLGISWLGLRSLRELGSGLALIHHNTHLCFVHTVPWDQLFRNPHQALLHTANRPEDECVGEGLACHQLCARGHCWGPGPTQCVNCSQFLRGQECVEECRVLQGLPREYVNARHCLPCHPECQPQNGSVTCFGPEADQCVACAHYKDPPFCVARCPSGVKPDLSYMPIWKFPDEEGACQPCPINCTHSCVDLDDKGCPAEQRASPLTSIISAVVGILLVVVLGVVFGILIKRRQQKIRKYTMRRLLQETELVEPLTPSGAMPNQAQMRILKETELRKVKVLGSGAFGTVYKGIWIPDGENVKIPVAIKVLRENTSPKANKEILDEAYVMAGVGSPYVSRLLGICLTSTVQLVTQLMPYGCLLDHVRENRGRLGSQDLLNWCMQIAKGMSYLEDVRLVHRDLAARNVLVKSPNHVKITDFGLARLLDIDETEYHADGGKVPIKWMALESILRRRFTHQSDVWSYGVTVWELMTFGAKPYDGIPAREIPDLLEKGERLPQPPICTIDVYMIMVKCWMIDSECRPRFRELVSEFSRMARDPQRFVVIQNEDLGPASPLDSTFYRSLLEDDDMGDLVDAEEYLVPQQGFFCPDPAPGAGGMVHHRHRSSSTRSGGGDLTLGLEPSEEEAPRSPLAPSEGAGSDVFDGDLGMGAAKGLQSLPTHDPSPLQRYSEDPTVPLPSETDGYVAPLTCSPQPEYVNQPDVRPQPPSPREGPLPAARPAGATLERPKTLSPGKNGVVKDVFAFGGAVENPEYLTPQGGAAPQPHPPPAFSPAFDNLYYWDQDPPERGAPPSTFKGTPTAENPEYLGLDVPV

[6] = molecular target: T6, panel of 374 wild-type kinases (Homo sapiens, UniProt P54762); conditions: read-out: % Enzyme Activity (relative to DMSO controls), EPHB1
T6 construct: purchased Reaction Biology Corporation
T6 sequence (P54762 18-984): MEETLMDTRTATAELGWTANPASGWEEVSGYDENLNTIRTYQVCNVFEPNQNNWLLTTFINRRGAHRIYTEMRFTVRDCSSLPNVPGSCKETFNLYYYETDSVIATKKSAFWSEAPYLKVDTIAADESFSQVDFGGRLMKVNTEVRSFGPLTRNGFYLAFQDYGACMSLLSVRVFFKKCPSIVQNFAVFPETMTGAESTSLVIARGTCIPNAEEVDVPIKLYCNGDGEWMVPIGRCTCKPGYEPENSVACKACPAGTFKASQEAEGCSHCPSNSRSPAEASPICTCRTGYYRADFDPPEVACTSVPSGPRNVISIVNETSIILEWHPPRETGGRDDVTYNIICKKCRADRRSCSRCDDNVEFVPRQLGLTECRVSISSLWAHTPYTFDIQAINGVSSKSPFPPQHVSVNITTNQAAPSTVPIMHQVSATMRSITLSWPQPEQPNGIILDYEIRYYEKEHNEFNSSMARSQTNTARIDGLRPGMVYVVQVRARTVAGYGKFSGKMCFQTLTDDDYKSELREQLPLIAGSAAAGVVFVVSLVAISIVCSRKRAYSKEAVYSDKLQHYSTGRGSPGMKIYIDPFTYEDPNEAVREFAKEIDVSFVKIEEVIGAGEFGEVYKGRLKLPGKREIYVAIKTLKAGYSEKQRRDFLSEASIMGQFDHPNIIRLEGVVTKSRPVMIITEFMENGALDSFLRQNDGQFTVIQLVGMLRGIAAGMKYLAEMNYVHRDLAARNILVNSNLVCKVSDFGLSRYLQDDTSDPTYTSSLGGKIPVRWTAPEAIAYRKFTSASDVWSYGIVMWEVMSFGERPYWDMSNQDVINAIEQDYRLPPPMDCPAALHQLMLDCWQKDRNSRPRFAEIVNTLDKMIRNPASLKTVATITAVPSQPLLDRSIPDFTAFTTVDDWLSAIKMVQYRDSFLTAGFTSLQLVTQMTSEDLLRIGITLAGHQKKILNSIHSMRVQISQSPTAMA

Row | Compound | remaining activity at 5 µM [1] [%] | remaining activity at 5 µM [2] [%] | remaining activity at 5 µM [3] [%] | remaining activity at 5 µM [4] [%] | remaining activity at 5 µM [5] [%] | remaining activity at 5 µM [6] [%] | remaining activity at 10 µM ([1]; 10 uM) [%] | remaining activity at 10 µM ([2]; 10 uM) [%] | remaining activity at 10 µM ([3]; 10 uM) [%] | remaining activity at 10 µM ([4]; 10 uM) [%] | remaining activity at 10 µM ([5]; 10 uM) [%] | remaining activity at 10 µM ([6]; 10 uM) [%]
1 | O=C(Nc1cnn(-c2csc(C(=O)NC3COC3)c2)c1)Nc1ccccc1Cl [Compound 17, 4-(4-(3-(2-chlorophenyl)ureido)-1H-pyrazol-1-yl)-N-(oxetan-3-yl)thiophene-2-carboxamide] | 96.1 | 105 | 97.4 | 96.9 | 103 | 100 | – | – | – | – | – | –
2 | Cc1sc(C(=O)NC2COC2)cc1-n1cc(NC(=O)Nc2c(F)cccc2Cl)cn1 [Compound 27, 4-(4-(3-(2-chloro-6-fluorophenyl)ureido)-1H-pyrazol-1-yl)-5-methyl-N-(oxetan-3-yl)thiophene-2-carboxamide] | – | – | – | – | – | – | 106 | 104 | 128 | 106 | 64.1 | 100
3 | O=C(Nc1cnn(-c2csc(C(=O)NC3COC3)c2)c1)Nc1c(F)cccc1Cl [Compound 25, 4-(4-(3-(2-chloro-6-fluorophenyl)ureido)-1H-pyrazol-1-yl)-N-(oxetan-3-yl)thiophene-2-carboxamide] | 106 | 93.6 | 93.5 | 95 | 97 | 96.1 | – | – | – | – | – | –
